Patent publication US20220192956A1, “SUPERIOR EFFICACY OF AZOXYSTROBIN AND OTHER STROBILURINS” (The Procter & Gamble Company, priority 2020, published 2022)
Converted amounts (≈) assume the structure as drawn.

What was measured:
[1] = system: Aspergillus brasiliensis (ATCC 16404); experiment: In vitro antifungal potency (MIC), growth graded visually; type: cell-based; conditions: spores in SDB, 25° C., approximately 96 h; for MIC: Aspergillus brasiliensis, ATCC16404, read-out: MIC (ppm) against Aspergillus brasiliensis
Description: Aspergillus brasiliensis (ATCC 16404): Aspergillus spores are prepared by inoculating a Sabouraud agar plate and incubating at 25° C. for 6-10 days, after which, 10 mL of Saline+Tween-80 is added to dislodge the spores. The suspension is then filtered through 2 layers of sterile gauze. The spores are diluted two-fold in SDB. 190 μl of SDB is added to a Corning 3596 polystyrene plate followed by 5 μl of test compound per well and 5 μl of the diluted spores. The plates are incubated at 25° C. for approximately 96 h at high humidity. Growth is graded visually as either growth or no growth.
(§1) All compounds are sourced from Sigma Aldrich (St. Louis, Mo.) and prepared as 10 mg/ml in DMSO. A semipermeable aeraseal membrane is applied to the plate which is then covered with water-soaked cotton batting. The samples are shaken at 31° C. on a Heidolph Titramax 100 shaker at 1500 rpm for approximately 72 hours. The plates are shaken at 1250 rpm on an Eppendorf MixMate shaker to disperse the cells before 200 μl of cells is transferred to a Corning 3596 polystyrene plate. The samples are shaken again at 950 rpm on a MixMate shaker before the absorbance at 600 nm is read using a Molecular Devices SpectraMax plate reader.

[2] = system: Malassezia pachydermatis (CBS 1879); experiment: In vitro antifungal potency (MIC), growth read by absorbance at 600 nm; type: cell-based; conditions: mDixon medium, 31° C., approximately 72 hours; for MIC: Malassezia pachydermatis, CBS1879, read-out: MIC (ppm) against Malassezia pachydermatis
Description: (§2) Malassezia furfur (CBS 7982), Malassezia sympodialis (ATCC 42132), and Malassezia pachydermatis (CBS 1879) is grown for approximately 24 hours in a 250 ml vent cap polycarbonate Erlenmeyer flask containing approximately 100 ml of mDixon medium and 5 ml of a fully grown Malassezia culture is prepared using the same conditions as described. The cells are diluted by mixing 2.5 ml of the 24 hour-old culture per 50 ml of mDixon medium. A Versette robot (ThermoFisher Scientific) is used to transfer 292.5 μl of the dilute cells into each well of a Beckman 267007 polypropylene round bottom deep well plate.
as §1

[3] = system: Malassezia furfur (CBS 7982); experiment: as above; type: cell-based; conditions: for MIC (ppm) against Malassezia furfur / MIC: mDixon medium, 31° C., approximately 72 hours; for MIC: CBS7982, read-out: MIC (ppm) against Malassezia furfur
Description: as §2, §1

[4] = system: Malassezia sympodialis (ATCC 42132); experiment: as above; type: cell-based; conditions: mDixon medium, 31° C., approximately 72 hours; for MIC: Malassezia sympodialis, ATCC42132, read-out: MIC (ppm) against Malassezia sympodialis
Description: as §2, §1

[5] = system: Candida albicans (ATCC 10231); experiment: as above; type: cell-based; conditions: Sabouraud Broth, 31° C., evaluated at concentrations up to 250 ppm; for MIC: Candida albicans, ATCC10231, read-out: MIC (ppm) against Candida albicans
Description: Candida albicans (ATCC 10231) is grown overnight in Sabouraud Broth (SDB). 190 μl of SDB is added per well of a Corning 3596 polystyrene plate followed by 5 μl of test material as two-fold dilutions in DMSO and 5 μl C. albicans. The cells are incubated at 31° C., without shaking, and wrapped in wet cotton batting. The plates are shaken for 30 seconds at 950 rpm on a MixMate shaker. The absorbance at 600 nm is read on a Spectramax plate reader.
as §1

[6] = cited from earlier work
Malassezia yeasts = experiment: In vitro antifungal potency (MIC), statements across the Malassezia species tested; type: cell-based
Description: as §2, §1

SMILES | MIC (ppm) against Aspergillus brasiliensis [1] [ppm] | MIC (ppm) against Malassezia pachydermatis [2] [ppm] | MIC (ppm) against Malassezia furfur [3] [ppm] | times less potent than azoxystrobin (MIC against Malassezia furfur) ([3]; ratio of MICs, Malassezia furfur) [times] | MIC (ppm) against Malassezia sympodialis [4] [ppm] | MIC (ppm) against Candida albicans [5] [ppm] | MIC [1] [µg/mL] | MIC [2] [µg/mL] | MIC ([3]; Malassezia furfur) [µg/mL] | MIC [4] [µg/mL] | MIC [5] [µg/mL] | solubility in water [6] | MIC against Malassezia yeasts (all species tested) (Malassezia yeasts; M. furfur, M. sympodialis, M. pachydermatis) | times more potent than pyraclostrobin (MIC against Malassezia, in all cases) (Malassezia yeasts; ratio of MICs, all three Malassezia species) [times]
CNC(=O)/C(=N/OC)c1ccccc1CO/N=C(C)/C(=N/OC)C(/C)=N/OC [Orysastrobin, orysastrobin] | 31.25 | 125 | 31.25 | 64 | 7.81 | >250 | – | – | – | – | – | – | – | –
CON=C(C(=O)OC)c1ccccc1CON=C(C)c1cccc(C(F)(F)F)c1 [Trifloxystrobin, trifloxystrobin] | – | – | – | – | – | – | 31.2 (≈ 76.5 µM) | 31.2 (≈ 76.5 µM) | 15.6 (≈ 38.3 µM) | 1.95 (≈ 4.78 µM) | > 250 | – | – | –
COC(=O)N(OC)c1ccccc1COc1ccn(-c2ccc(Cl)cc2)n1 [Pyraclostrobin, pyraclostrobin] | – | – | – | – | – | – | 0.02 (≈ 0.0516 µM) | 3.91 (≈ 10.1 µM) | 1.95 (≈ 5.03 µM) | 0.49 (≈ 1.26 µM) | > 250 | – | – | –
CNC(=O)/C(=N/OC)c1ccccc1COc1cc(C)ccc1C [Dimoxystrobin, dimoxystrobin] | 0.24 | 31.25 | 7.81 | – | 1.95 | >250 | – | – | – | – | – | – | – | –
CO/N=C(/C(=O)OC)c1ccccc1COc1ccccc1C [Kresoxim-methyl, kresoxim methyl] | – | – | – | – | – | – | 0.98 (≈ 3.13 µM) | 31.2 (≈ 99.7 µM) | 15.6 (≈ 49.9 µM) | 3.91 (≈ 12.5 µM) | > 250 | – | – | –
CO/C=C(/C(=O)OC)c1ccccc1Oc1cc(Oc2ccccc2C#N)ncn1 [Azoxystrobin] | 0.24 | 0.98 | 0.49 | – | 0.12 | >250 | – | – | – | – | – | low | less than 1.0 ppm | 4
CO/N=C(/C1=NOCCO1)c1ccccc1Oc1ncnc(Oc2ccccc2Cl)c1F [Fluoxastrobin, fluoxastrobin] | – | – | – | – | – | – | 0.49 (≈ 1.07 µM) | 7.81 (≈ 17 µM) | 3.91 (≈ 8.52 µM) | 1.95 (≈ 4.25 µM) | > 250 | – | – | –
